In article PMC4080980, “The pharmacokinetics of anthocyanins and their metabolites in humans” (British Journal of Pharmacology, 2014):
Marks after values point to notes of the source that are not given here.

What was measured:
Assay type in all cases: in vivo, humans
[1] = Urinary elimination/recovery after 500 mg oral bolus of 13C5-C3G; conditions: urine, single 500 mg oral 13C5-C3G; for Tmax: male, human, po, 500 mg, urine collection interval, read-out: Time at maximum concentration; for Total recovery: 0-48 h; for Total recovery / Maximum concentration: mean ± SEM
Description: (§1) A detailed description of the clinical design was previously published ([Czank et al., 2013]). Briefly, a single 500 mg oral bolus dose of isotopically labelled C3G (^13C5-C3G) was fed to eight healthy male participants (body mass index, 18.5–30.5 kg·m^–2; aged 18–45 years) after an overnight fast (>8 h). Participants provided blood (baseline, 0.5, 1, 2, 4, 6, 24, 48 h), urine (individual voids between 0 and 6 h, total voids between 6–24 and 24–48 h), breath (baseline, 0.5, 1, 2, 4, 6, 24, 48 h) and faecal samples (all voids between 0–6, 6–24 and 24–48 h). The study was conducted at the Clinical Research and Trials Unit at the University of East Anglia according to the principles expressed in the Declaration of Helsinki and was approved by the Cambridgeshire 3 Research Ethics Committee (REC ref: 10/H0306/42) and registered at clinicaltrials.gov as NCT01106729.
(§2) Serum, urine and faecal samples were extracted by SPE and analysed by HPLC-ESI-MS/MS as recently described ([Czank et al., 2013]). The extraction efficiency was established as 87 ± 11% (coefficient of variation, CV; 6.8 ± 0.7%) for serum, 88 ± 18% (CV, 7.9 ± 0.8%) for urine and 81 ± 21% (CV, 14.1 ± 1.2%) for faeces (n = 3 replicates for each analyte). Sample extracts (5 μL) were injected onto a Kinetex PFP column (Phenomonex) and separated using an Agilent 1200 series HPLC with a QTrap 4000 linear ion trap mass spectrometer (ABSciex, Warrington, UK). […] Metabolite identification was performed by multiple reaction monitoring (MRM) optimized for the detection of pure standards with m/z of the parent and daughter fragments adjusted to +2,+3,+5 amu to allow identification of the ^13C-labelled metabolites derived from the B-ring, A-ring or the parent structure respectively. Metabolites were confirmed on the basis of retention time (using authentic and synthesized standards where possible) and three or more ion transitions. The HPLC-ESI-MS/MS method was validated for linearity and precision across all metabolites. Six point standard curves ranging from 1.25 to 20 μM were constructed from analytical standards and injected six times. The precision was established as 1.4–11.0% and linearity of the standard curves was established as r^2 = 0.991–1.000 (CV, 0.2%) across the identified metabolites.
(§3) Pharmacokinetic modelling of metabolites in the serum was performed with the PKSolver ‘add-on’ for Excel 2010 (Microsoft, […], USA) ([Zhang et al., 2010]) using non-compartmental analysis with the AUC calculated using the trapezoidal rule. Pharmacokinetic parameters were established for each individual analyte and presented as mean ± SEM. Urine samples collected during the first 6 h post-bolus were grouped together to the nearest hour time point (i.e. samples were not pooled but individual concentrations were averaged post-quantification) for graphical representation and to calculate total cumulative recovery. The concentration of metabolites was converted to amount recovered from urine by accounting for the molecular weight of the individual ^13C-labelled metabolites and the volume of the individual participants void and averaged across participants. Recovery of metabolites in the faeces was established from the molecular weight of the ^13C-labelled metabolite and the weight of the individual participants void adjusting for faecal water content as previously described ([Czank et al., 2013]). Urine and faecal recovery amounts are presented as mean ± SEM (n = 8), unless otherwise stated.

[2] = Faecal recovery after 500 mg oral bolus of 13C5-C3G; conditions: faeces, 500 mg oral 13C5-C3G; for Recovery 24–48 h / Recovery 6–24 h: mean ± SEM; for Recovery 0–6 h: 0–6 h (only 2 participants provided voids)
Description: The study was conducted at the Clinical Research and Trials Unit at the University of East Anglia according to the principles expressed in the Declaration of Helsinki and was approved by the Cambridgeshire 3 Research Ethics Committee (REC ref: 10/H0306/42) and registered at clinicaltrials.gov as NCT01106729.
Sample extracts (5 μL) were injected onto a Kinetex PFP column (Phenomonex) and separated using an Agilent 1200 series HPLC with a QTrap 4000 linear ion trap mass spectrometer (ABSciex, Warrington, UK). […] Metabolite identification was performed by multiple reaction monitoring (MRM) optimized for the detection of pure standards with m/z of the parent and daughter fragments adjusted to +2,+3,+5 amu to allow identification of the ^13C-labelled metabolites derived from the B-ring, A-ring or the parent structure respectively. […] The HPLC-ESI-MS/MS method was validated for linearity and precision across all metabolites.
Pharmacokinetic parameters were established for each individual analyte and presented as mean ± SEM. Urine samples collected during the first 6 h post-bolus were grouped together to the nearest hour time point (i.e. samples were not pooled but individual concentrations were averaged post-quantification) for graphical representation and to calculate total cumulative recovery. The concentration of metabolites was converted to amount recovered from urine by accounting for the molecular weight of the individual ^13C-labelled metabolites and the volume of the individual participants void and averaged across participants. […] Urine and faecal recovery amounts are presented as mean ± SEM (n = 8), unless otherwise stated.

[3] = Serum pharmacokinetics after 500 mg oral bolus of 13C5-C3G (HPLC-ESI-MS/MS, non-compartmental analysis); conditions: for half-life / Tmax / Cmax / AUC(0-t) / AUC0-48: serum; for half-life / t1/2: serum elimination half-life; for half-life / Tmax / Cmax / AUC(0-t) / t1/2 / AUC0-48: single 500 mg oral 13C5-C3G; for half-life / Tmax / AUC(0-t) / t1/2 / AUC0-48: mean ± SEM; for Cmax: healthy men, mean ± SEM of participants in whom detected; for AUC(0-t) / AUC0-48: trapezoidal rule; for AUC(0-t): read-out: AUC0-48
Description: as §1, §2, §3

[4] = male, human, po, 500 mg, read-out: tmax

Tmax [1]	Total recovery [1]	Maximum concentration [1]	Recovery 24–48 h [2]	Recovery 6–24 h [2]	SMILES	also measured
3 to 4 h	64.6 µg	172 nM	273.3 ± 272.7 ^h μg	1.4 ^b μg	COc1ccc(C(=O)O)c(O)c1 [2-Hydroxy-4-methoxybenzoic acid]	–
–	–	–	–	469.7 µg	COc1cc(/C=C/C(=O)O)ccc1O [A-ring-derived ferulic acid]	t1/2 [3]: 96.5 ± 73.4 h
–	183.2 ± 93.1 µg	822 ± 557 nM	176.1 ± 174.7 ^h μg	0.6 ± 0.3 ^h μg	COc1ccc(C(=O)O)cc1OS(=O)(=O)O [IsoVA-3-sulfate]	–
–	79.5 ± 54.2 µg	212 ± 130 nM	8.5 ^b μg	11.0 ^b μg	COc1ccc(C(=O)O)cc1O [IsoVA]	Cmax [3]: 195 nM; Tmax [3]: 2.0 h; AUC0-48 [3]: 0.189 µM·h
–	–	–	–	35.1 ^b μg	COC(=O)c1ccc(O)c(OC)c1 [Methyl vanillate]	–
3 to 4 h	20.7 ± 8.0 µg	108 ± 39 nM	92.4 ± 49.4 ^f μg	166.6 ± 100.6 ^g μg	COC(=O)c1ccc(O)c(O)c1 [Methyl-3,4-dihydroxybenzoate]	half-life ([3]; male, human, po, 500 mg): 21.6 ± 5.9 h; Tmax [3, 4]: 8.4 ± 5.7 h; Cmax ([3]; male, human, po, 500 mg): 12 ± 5 nM; AUC(0-t) ([3]; male, human): 0.171 ± 0.07 µM·h
–	492.4 ± 193.0 µg	1244 ± 333 nM	12.0 ± 10.2 ^g μg	23.0 ± 18.1 ^g μg	O=C(O)c1ccc(OS(=O)(=O)O)c(O)c1 [PCA-4-sulfate]	–
–	449.1 ± 112.4 µg	1682 ± 899 nM	69.0 ± 39.1 ^g μg	–	COc1cc(C(=O)O)ccc1OS(=O)(=O)O [VA-4-sulfate]	Recovery 0–6 h [2]: 0.6 ^b μg

The remaining lines, values behind:

SMILES	Tmax [1]	Total recovery [1]	Maximum concentration [1]	Recovery 24–48 h [2]	Recovery 6–24 h [2]	also measured
O=C(O)c1ccc(O)cc1	1 to 2 h	13.2 ± 3.7 µg	49 ± 11 nM	22.0 ± 11.6 ^g μg	–	–
O=C(O)c1cccc(O)c1O [2,3-Dihydroxybenzoic acid]	–	–	–	440.4 ± 381.8 ^h μg	–	–
O=Cc1ccc(O)c(O)c1 [3,4-Dihydroxybenzaldehyde]	0 to 1 h	6.3 ± 2.6 µg	24 ± 7 nM	5.1 ± 1.8 ^i μg	3.4 ± 3.8 ^h μg	Maximum concentration ([1]; listed as 3,4-dihydroxybenzaldehyde): 24 nM
O=C(O)Cc1ccc(O)c(O)c1 [3,4-Dihydroxyphenylacetic acid]	24 to 48 h	28.0 µg	82 nM	12.8 ± 7.5 ^c μg	10.1 ± 4.0 ^e μg	Recovery 0–6 h [2]: 2.0 ^b μg
O=Cc1ccc(O)cc1 [4-Hydroxybenzaldehyde]	5 to 6 h	10.0 ± 9.0 µg	97 ± 94 nM	0.1 ^b μg	0.8 ± 0.8 ^h μg	half-life ([3]; male, human, po, 500 mg): 17.9 ± 8.8 h; Tmax [3, 4]: 5.6 ± 3.1 h; Cmax ([3]; male, human, po, 500 mg): 667 ± 653 nM; AUC(0-t) ([3]; male, human): 0.663 ± 0.505 µM·h
O=C(O)Cc1ccc(O)cc1 [4-Hydroxyphenylacetic acid]	4 to 5 h	50.0 ± 2.0 µg	391 ± 113 nM	55.4 ^b μg	7.3 ^b μg	–
COc1ccc(C=O)cc1 [4-Methoxybenzaldehyde]	–	–	–	–	20.7 ^b μg	–
O=C(O)c1ccc(OC2OC(C(=O)O)C(O)C(O)C2O)cc1 (centres unmarked) [Benzoic acid-4-glucuronide]	4 to 5 h	53.1 ± 18.1 µg	129 ± 47 nM	14.8 ± 8.0 ^i μg	6.8 ± 3.0 ^c μg	half-life ([3]; male, human, po, 500 mg): 17.1 ± 3 h; Tmax [3, 4]: 10.9 ± 3.4 h; Cmax ([3]; male, human, po, 500 mg): 74 ± 20 nM; AUC(0-t) ([3]; male, human): 1.47 ± 0.489 µM·h; Recovery 0–6 h [2]: 1.5 ^b μg
O=C(O)/C=C/c1ccc(O)c(O)c1 [Caffeic acid]	–	–	–	354.6 ± 125.0 ^h μg	25.2 ^b μg	–
COc1cc(/C=C/C(=O)O)ccc1O [Ferulic acid]	–	–	–	–	–	Tmax [3, 4]: ~8 h; AUC(0-t) ([3]; male, human): 1.82 ± 1.05 µM·h; time of detection after consumption ([3]; serum and urine samples): ≤ 4 h; Tmax [3]: 8.2 ± 4.1 h; Recovery 6–24 h ([2]; listed as B-ring-derived ferulic acid): 2373.1 µg
O=C(O)CNC(=O)c1ccccc1 [Hippuric acid]	6 to 24 h	2415.6 ± 2223.0 µg	5417 ± 4906 nM	27.5 ± 27.4 ^h μg	12.0 ± 11.4 ^g μg	half-life ([3]; male, human, po, 500 mg): 95.6 ± 77.8 h; Tmax [3, 4]: ~16 h; Cmax ([3]; male, human, po, 500 mg): 1960 ± 1390 nM; Tmax [3]: 15.7 ± 4.1 h; Maximum concentration ([1]; listed as hippuric acid): 5417 nM
COc1ccc(C(=O)O)cc1OC1OC(C(=O)O)C(O)C(O)C1O (centres unmarked) [IsoVA-3-glucuronide]	–	526.8 ± 92.2 µg	699 ± 90 nM	12.7 ± 10.9 ^h μg	1.3 ^b μg	t1/2 [3]: 1.6 ± 0.2 h; Cmax [3]: 35 ± 5 nM; Tmax [3]: 4.3 ± 0.6 h; AUC0-48 [3]: 0.103 ± 0.013 µM·h; Recovery 0–6 h [2]: 1.8 ^b μg
O=C(O)c1ccc(O)c(OC2OC(C(=O)O)C(O)C(O)C2O)c1 (centres unmarked) [PCA-3-glucuronide]	1 to 2 h	197.7 ± 41.2 µg	301 ± 72 nM	49.0 ^b μg	22.9 ± 22.0 ^g μg	half-life ([3]; male, human, po, 500 mg): 18 ± 15.6 h; Tmax [3, 4]: 2.7 ± 1 h; Cmax ([3]; male, human, po, 500 mg): 11 ± 3 nM; AUC(0-t) ([3]; male, human): 0.06 ± 0.038 µM·h
COc1cc(-c2[o+]c3cc(O)cc(O)c3cc2OC2OC(CO)C(O)C(O)C2O)ccc1O (centres unmarked) [Peonidin-3-glucoside]	1 to 2 h	22.9 ± 10.6 µg	76 ± 43 nM	–	–	–
